This note sets out measurements from PMC10349134, “The RNA-binding protein LRPPRC promotes resistance to CDK4/6 inhibition in lung cancer” (Nature Communications, 2023).

This experiment addresses T1, LRPPRC (endogenous, A549 cells) (Homo sapiens, UniProt P42704).
T1 construct: endogenous protein in A549 lung adenocarcinoma cells; no tag
Put plainly: cellular thermal shift assay (CETSA), immunoblot. Type of experiment: cell-based. The note with it: 40 μM GAA vs DMSO. On the technique in general: A western blot detects proteins with antibodies after separation by electrophoresis.

The structures appear in SMILES notation.

In the case of `Cc1cc2c(C(C)C)c(O)c(O)c(C=O)c2c(O)c1-c1c(C)cc2c(C(C)C)c(O)c(O)c(C=O)c2c1O` [GAA], the CETSA thermal stabilization result is reported as “GAA could increase the thermal stabilization of LRPPRC”.
